Measurements published in EPA's ToxValDB 9.5 (doi:10.2903/j.efsa.2007.121r).
In brackets after ≈: the same amount, converted by molar mass.

Assays:
Apis mellifera = settings: acute; duration: 48 hours; oral; unspecified; mortality
Bibionidae = settings: chronic/long-term; duration: 28 days
Canidae = settings: chronic; duration: 2 years; oral; diet; Dog Other; body weight
Coturnix coturnix = settings: acute; oral; mortality
Daphnia magna = settings: chronic/long-term; duration: 21 days; reproduction
Lepomis macrochirus = settings: acute; duration: 96 hours; mortality
Oncorhynchus mykiss = settings: chronic/long-term; duration: 91 days; mortality
Tagia sp. = settings: acute; duration: 14 days; mortality
Aphidius rhopalosiphi = experiment: LR50; higher = less toxic; settings: not reported; mortality
[1] = reproduction developmental, organ weight

Structure (SMILES)	LD50 (Apis mellifera) [µg/piece]	NOEC (Bibionidae) [mg/L]	NOAEL (Canidae) [mg/kg-day]	LD50 (Coturnix coturnix) [mg/kg-day]	NOEC (Daphnia magna) [mg/L]	LC50 (Lepomis macrochirus) [µg/mL]	NOEC (Oncorhynchus mykiss) [mg/L]	LD50 (Rattus norvegicus; acute, oral, mortality) [mg/kg-day]	NOAEL (Rattus norvegicus; developmental, development) [mg/kg-day]	NOAEL (Rattus norvegicus; [1]) [mg/kg-day]	LC50 (Tagia sp.) [mg/kg]	LR50 (Aphidius rhopalosiphi) [g/ha]
CCOC(=O)[C@@H](C)Oc1ccc(Oc2nc3ccc(Cl)cc3o2)cc1 [Fenoxaprop-P-ethyl]	> 199	0.2	1	2000	0.22	0.19 (≈ 0.525 µM)	0.036	> 3150	10	1.4	> 1000	46.4
CCOC(=O)C(C)Oc1ccc(Oc2nc3ccc(Cl)cc3o2)cc1 (stereo not given) [Fenoxaprop-ethyl]			1						10	1.4		
